Experimental findings from patent publication US20240132931A1, “Biological Indicator with Enhanced Volatile Organic Compound Detection” (O&M Halyard, Inc., priority 2022, published 2024) are described below.

Test [1] deals with Geobacillus stearothermophilus spores. Put plainly: VOC production (SPME, GC-MS) during the first 20 minutes of spore germination, growth medium with or without additive (Example 1). Format: cell-based. The method, then: Spore suspension of Geobacillus stearothermophilus (1×10^6 CFU/0.1 mL) were diluted to reach a concentration of 500-800 CFU/30-50 μL after being heat shock for 15 min at 95-99° C. to kill all vegetative cell that might have been present in the suspension.
A modified soybean casein digest broth was diluted (10×) with HPLC grade water and sterilize by filtration 0.45 μm to limit the amount of VOC in the background. was used with or without the addition of an additive.
For the VOC testing, 0.5 mL of the sterile diluted growth medium was transferred in each VOC collection vials. The vials were prewarm at 60° C. for at least 10 minutes. Before starting the VOC sampling, the additive was added to the vials, then the spores according to Table 1 in function of the test to be performed. The VOC were sampled by inserting the SPME fiber into the vial as soon as the spores were added, and the vials were put back in the temperature control systems. The SPME fiber use was an assembly Divinylbenzene/Carboxen/Polydimethylsiloxane (DVB/CAR/PDMS) (Sigma Aldrich—product number 57328-U from Supelco) conditioned at 270° C. for 30 minutes before use. The SPME fibers were removed 20 minutes after the addition of the spores and were analyzed using the GC-MS according to the lab protocols for the apparatus.

For test [2] the test system is unchanged. As to the kind of experiment: VOC production (SPME, GC-MS) during the first 15 minutes of spore germination, growth medium with L-threonine or glucose (Example 2). In kind it is cell-based. The method, then:
Spore suspension of Geobacillus stearothermophilus (1×10^6 CFU/0.1 mL) were heated for 30 min at 99-100° C. to kill all vegetative cell that might have been present in the suspension.
A growth medium composed of a modified soybean casein digest broth diluted (200×) with the sterilized germination medium (1,0 mM L-valine in 10 mM sodium phosphate buffer (pH 8.0) as described by “thou T, Dong Z, Setlow P, Li Y-q (2013), Kinetics of Germination of Individual Spores of Geobacillus stearothermophilus as Measured by Raman Spectroscopy and Differential Interference Contrast Microscopy. PLoS ONE 8(9): e74987)” was used with or without the addition of L-threonine or glucose at 5 mM. One test was also performed with the germination medium by itself, without the modified soybean casein digest broth diluted (200×) and the additives. The controls included the SPME fiber alone, in the presence of 2500 μg methanol, and growth medium with and without the L-Threonine or glucose.
For the VOC testing, 0.5 mL of the control solution (methanol) or sterile growth medium was transferred in each VOC collection vials. The vials were prewarm at 65° C. for at least 10 minutes. […] The SPME fibers were removed 15 minutes after the addition of the spores and were analyzed using the GC-MS according to the lab protocols for the apparatus.

Setting [3] is: GM + spores (about 500-800 CFU) + additive 5 mM, 60° C., 20 minutes.

`CO[C@H]1O[C@H](CO)[C@@H](O)[C@H](O)[C@H]1O` [Additive, Methyl alpha-D-glucopyranoside]: in test [1] (Example 1), the “Detection of 1-Nonene, Nonane, 1-Octene, Octane, Heptane” value is “detected only in the presence of the additive” and the “Propene concentration change from the presence of the additive” value was “not increasing”. Also, in test [1] (setting [3]), the “1-butanol intensity in comparison to the growth medium intensity” value was “(+up to 3X)”, the “Acetaldehyde intensity in comparison to the growth medium intensity” value is “to 2X”, the “Formaldehyde intensity in comparison to the growth medium intensity” value was “(+10X)” and the “Nonanal Octanal Heptanal intensity in comparison to the growth medium intensity” value is “(up to 3X)”.

For `C[C@@H](O)[C@H](N)C(=O)O` [L-threonine], the “Formation of common VOC such as 1-nonene” value in test [2] (Example 2) is listed as “leads to the formation”. The “Butanal produced (qualitative amount)” value in test [2] (GM + 5 mM additive + 5000-10000 spores, 65° C., 15 minutes) was “<control”.
